Measurements from patent US6423729B1, “Therapeutic or prophylactic agent for glomerulopathy” (Shionogi & Co., Ltd., priority 1997, dated 2002).

How the values were obtained:
[1] = test system: E30 monoclonal antibody-induced glomerulonephritis in Slc-Wistar rats; assay: Urinary protein excretion in E30 monoclonal antibody-induced glomerulonephritis rats; type: in vivo, rat; settings: urinary protein excretion on day 2 after E30 injection, compound-treated vs vehicle-treated group, oral, 100 mg once a day, first dose 2 hours before E30
Description: Five to eight weeks old male Slc-Wistar rats were used in the experiment.
In order to induce glomerulonephritis, E30 of 20 to 500 μg, preferably 50 to 200 μg, is intravenously injected to rats of five to eight weeks old. Test compounds of 0.1 to 500 mg, preferably 1 to 200 mg, are suspended with 3 to 10%, preferably 4 to 6%, gum arabic solution and the like, and are orally given 1 to 5 hours, preferably 1.5 to 3 hours, prior to E30 injection. Constant amount of test compounds are then consecutively given 1 to 3 times a day. Evaluation of test compounds are determined by the amount of urinary protein excretion 2 days after E30 injection when proteinuria reaches to the maximum level.
Determination of the amount of urinary protein excretion is performed by the collection of 24-hour urine samples with stainless metabolic cages followed by the measurement of the concentration of urinary protein. Blood samples obtained at the follow-up period are processed for the determination of blood urea nitrogen and plasma creatinine, which indicate renal function. As a marker of damaged renal tubules, urinary amounts of N-acetyl-D-glycosaminidase excretion is measured. Furthermore, to study the inhibitory effects of compounds on mesangial proliferation following E30 injection, the number of PCNA (proliferating cell nuclear antigen) positive cells per single glomerulus is counted. Morphological changes are observed with light and electron microscopy.
5-week-old male Slc-Wistar rats were reared under the conditions of room temperature of 25° C., 40-60% humidity and 12 hour cycles of light and darkness and fed on solid chow (CA-1, Clea Japan) and tap water ad libitum. After one week's preliminary rearing, each rat was housed in a stainless metabolic cage for acclimation for one week, and was used for experiment at 7 weeks of old (body weight: 150-180 g). E30 monoclonal antibody (J.J.N., vol. 36, p106, 1994) was diluted with saline at 100 μg/0.4 ml and was administered from tail vein at the volume of 0.4 ml/body. Compound (2) was suspended with 5% gum arabic solution and was given at the dose of 100 mg 2 hours before E30 injection. Subsequently, compound (2) of 100 mg was orally administered once a day from the next day. The rats were housed in stainless metabolic cages just after the administration of test compound, and then 24-hour urine samples were collected. After measuring the volume, the urine was centrifuged at 3000 rpm for 10 min at room temperature. […] Urinary protein was determined by pyrogallole red method (Micro TP-test Wako, Wako Zyunyaku). The amount of urinary protein excretion on day 2 in compound-treated group was compared with that in vehicle-treated one, and inhibitory ratio of urinary protein excretion was calculated. […]

MMP-9 = biological target: T1, MMP-9 (Homo sapiens, UniProt P14780); assay: Assay for inhibitory activity against MMP-9; type: biochemical
T1 construct: made in house; host or cells: HT1080 human fibrosarcoma cells; endogenous protein secreted after TPA treatment and purified from conditioned medium
Description: (§1) Assay for Inhibitory Activities of MMP-9 and MMP-2
(§2) The enzymatic activity was analyzed on the method described by Knight, C. G., et al. (C. Graham Knight., Frances Willenbrock and Gillian Murphy: A novel coumarin-labelled peptide for sensitive continuous assays of the matrix metalloproteinases. FEBS Lett., 296 (1992) 263-266).
MMP-9 was purified by using a combination of procedures described in previous reports as follows. Yasunori Okada, Yukio Gonoji, Katsumi Naka, Katsuro Tomita, Isao Nakanishi, Kazushi Iwata and Taro Hayakawa: Matrix metalloproteinase 9 (92-kDa gelatinase/type IV collagenase) from HT1080 human fibrosarcoma cells. Purification and activation of the precursor and enzymic properties. J. Biol. Chem., 267 (1992) 21712-21719. Yasunori Okada, Tatsuhisa Morodomi, Jan J, Enghild, Ko Suzuki, Atsushi Yasui, Isao Nakanishi, Guy Salvesen and Hideaki Nagase: Matrix metalloproteinase 2 from human rheumatoid synovial fibroblasts. Purification and activation of the precursor and enzymic properties. Eur. J. Biochem. 194 (1990) 721-730. Robin V Ward, Rosalind M Hembry, John J Reynolds and Gillian Murphy: The purification of tissue inhibitor of metalloproteinase-2 from its 72 kDa progelatinase complex. Biochem. J. 278 (1991) 179-187.
Briefly, human fibrosarcoma ATCC HT1080 cell line was cultured to confluent in Dulbecco's Modified Medium (DMEM) containing 10% fetal-calf serum at 37° C. for 48 hours. Subsequently, the medium of confluent culture was changed to serum-free DMEM medium. To obtain MMP-9, Phorbol-12-myristate-13-acetate (TPA) must be added to this serum-free DMEM medium at a concentration of 50 ng/ml. The TPA treated medium was centrifuged at 3000 rpm for 15 min and the supernatant was concentrated to 450 ml by a Toyo-Roshi UP-20 apparatus with an ultrafiltration membrane. Then, proMMP-9 in this concentrated solution was purified by using columns of Gelatin-Sepharose and Concanavalin A-Sepharose. The pool containing proMMP-9 was dialyzed, concentrated (Toyo-Roshi UP-20) and applied to columns of Sephacryl S-200 and Green A matrix for the separation from TIMPs. The obtained proMMP-9 fraction was activated by TPCK-Trypsin (final conc. […] reaction mix.) for the assay.
(§3) MOCAc-Pro-Leu-Gly-Leu-A2pr(Dnp)-Ala-Arg-NH2 as a substrate was purchased from Petide Institute(Osaka pref., Japan). This substrate was dissolved in DMSO at a concentration of 1 mM.
(§4) Reaction buffer consists of 50 mM Tris-HCl buffer (pH 7.5) containing 10 mM CaCl2, 0.3 M NaCl, 0.005% Brij35 and 0.01% NaN3.
Assay Method of Inhibitory Activity Against MMP-9:
(§5) 1.0 μl of a tested compound in DMSO is added to 48.0 μl of a reaction buffer containing 0.08 μl of an enzyme solution. After standing for 60 minutes at room temperature, the reaction was started by adding 1.0 μl of a substrate solution. After incubation for 60 minutes at room temperature, 100 μl of 3% (v/v) AcOH for reaction stopping and measured a fluorescence with excitation and emission at 320 nm and 405 nm, respectively (Spectrophotofluorometer; Fluoroscan Ascent (Labsystem)).
(§6) The measurement of the inhibitory activities (IC50) was carried out in a following four methods;
(§7) A) Reaction with substrate, enzyme and inhibitor
(§8) B) Reaction with substrate and inhibitor, without enzyme
(§9) C) Reaction with substrate and enzyme, without inhibitor
(§10) D) Reaction with substrate only
(§11) IC50 values were calculated by using a following formula and each fluorescence values of above four methods (A to D).
(§12) % inhibition={1−(A−B)/(C−D)}×100
(§13) IC50 means the concentration required to inhibit 50% of the enzyme activity.

MMP-2 = biological target: T2, MMP-2 (Homo sapiens, UniProt P08253); assay: Assay for inhibitory activity against MMP-2; type: biochemical
T2 construct: purchased Yagai (Yamagata pref., Japan)
T2 sequence (P08253 110-660): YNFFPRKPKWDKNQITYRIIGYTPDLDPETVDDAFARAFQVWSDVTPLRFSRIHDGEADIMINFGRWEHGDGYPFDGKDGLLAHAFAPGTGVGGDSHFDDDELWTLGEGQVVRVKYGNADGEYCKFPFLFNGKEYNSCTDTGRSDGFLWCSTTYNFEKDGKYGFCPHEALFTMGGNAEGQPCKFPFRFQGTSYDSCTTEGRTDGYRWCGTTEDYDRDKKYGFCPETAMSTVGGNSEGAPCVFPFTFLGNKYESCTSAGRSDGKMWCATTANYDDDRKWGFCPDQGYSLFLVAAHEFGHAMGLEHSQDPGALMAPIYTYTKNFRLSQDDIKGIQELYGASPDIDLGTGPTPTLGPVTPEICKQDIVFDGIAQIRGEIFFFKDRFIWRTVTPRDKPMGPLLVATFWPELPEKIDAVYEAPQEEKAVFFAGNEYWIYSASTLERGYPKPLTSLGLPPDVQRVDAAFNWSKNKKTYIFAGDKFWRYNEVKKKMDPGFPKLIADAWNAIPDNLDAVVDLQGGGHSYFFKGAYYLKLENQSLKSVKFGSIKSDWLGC
Description: as §1, §2
MMP-2 was purchased from Yagai (Yamagata pref., Japan).
as §3, §4
Assay Method of Inhibitory Activity Against MMP-2:
as §5, with “0.05” for “0.08”
as §6, §7, §8, §9, §10, §11, §12, §13

T1 sequence (P14780 107-707 limits assumed): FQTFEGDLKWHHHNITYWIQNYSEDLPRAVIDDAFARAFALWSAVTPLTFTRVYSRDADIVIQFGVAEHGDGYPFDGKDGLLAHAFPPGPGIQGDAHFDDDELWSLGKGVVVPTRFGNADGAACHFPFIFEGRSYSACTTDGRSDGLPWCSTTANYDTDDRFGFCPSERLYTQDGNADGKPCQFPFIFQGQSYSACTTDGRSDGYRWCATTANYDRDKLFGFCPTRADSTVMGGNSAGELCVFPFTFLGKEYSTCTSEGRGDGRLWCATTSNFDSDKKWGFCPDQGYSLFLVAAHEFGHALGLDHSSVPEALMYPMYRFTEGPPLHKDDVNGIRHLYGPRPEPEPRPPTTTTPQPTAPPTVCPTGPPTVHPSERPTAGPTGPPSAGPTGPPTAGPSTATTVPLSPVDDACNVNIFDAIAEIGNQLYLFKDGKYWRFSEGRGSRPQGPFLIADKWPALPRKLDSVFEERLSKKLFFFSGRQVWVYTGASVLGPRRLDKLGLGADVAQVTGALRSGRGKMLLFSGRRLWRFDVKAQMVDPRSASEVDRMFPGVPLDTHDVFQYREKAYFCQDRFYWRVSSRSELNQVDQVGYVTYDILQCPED

Row | IC50 (MMP-9) | IC50 (MMP-2) | melting point | SMILES | Inhibitory rate (%) of urinary protein excretion [1]
1 | 31.2 nM | 9.92 nM | 187 to 189 °C | CCc1ccc(-c2nnn(-c3ccc(S(=O)(=O)N[C@H](Cc4ccccc4)C(=O)O)cc3)n2)cc1 [Compound 108] | 35%
2 | 316 nM | 27.8 nM | 194 to 195 °C | C[C@@H](NS(=O)(=O)c1ccc(-n2nnc(-c3ccc(F)cc3)n2)cc1)C(=O)O [Compound 114] | 2.7%
